Experimental data as given in ChEMBL document CHEMBL3507680, “University of Dundee, Gates Library screen for HepG2 cell viability”.

Assay: Human HepG2 cell viability assay in 384 well format
Type: toxicity, cell-based
Design: dose 125 nL, time 70.5 hour; concentration not given beside the values
Conditions: HepG2 cells, read-out: Inhibition

Compound | cytotoxicity at 70.5 h [%]
O=C1NCCCCC1NC(=O)N1CCCc2ccccc21 (stereo not given) | -12.7
CC(Oc1cccc(Cl)c1)C(=O)Nc1cnn(CC(=O)NC2CC2)c1 (stereo not given) | -17.2
CC(NC(=O)NC1CCN(Cc2ccncc2)CC1)c1cccc(F)c1 (stereo not given) | -6.53
CN(C)c1cccc(C(=O)Nc2cnn(Cc3ccncc3)c2)c1 | -11.3
CS(=O)(=O)c1ccc(CNC(=O)NCc2cc[nH]n2)cc1 | -12.3
Cc1ccc(-c2cc(C(=O)NCC3CCOC3)n[nH]2)s1 (stereo not given) | 20.2
CC(C)c1noc(C(C)N2CCC(c3nc4ccccc4[nH]3)CC2)n1 (stereo not given) | -7.42
Cc1ccc(F)c2c1N(C(=O)c1ccc(S(C)(=O)=O)cc1)CCC2 | -10.6
Cc1ccc(-c2nc(C(=O)N(C)CC(=O)N(C)C)cs2)c(C)c1 | 20.9
Cc1noc(C(C)N2CCC(c3nc4ccccc4[nH]3)CC2)n1 (stereo not given) | -3.97
CC(=O)NCc1ccc(C(=O)N2CCCc3c(F)ccc(C)c32)o1 | -2.6
CC(C)Cn1cc(NC(=O)c2cccc(N(C)C)c2)cn1 | -8.55
O=C1OCCCN1Cc1nc(-c2ccncc2)no1 | -12.6
CN(c1ncc(S(N)(=O)=O)s1)C1CCc2ccccc2C1 (stereo not given) | -10
CNS(=O)(=O)CC(=O)N(C1CC1)C1Cc2ccccc2C1 | -13.4
Cc1ccccc1Cc1nc(CSc2nnc(N)n2C2CC2)no1 | -12.1
CCSc1cc(C(=O)N(CC(F)F)C(C)C)ccn1 | -3.2
C=C(C)CN(CC)C(=O)CN1CCCC1C(=O)N(C)C (stereo not given) | -4.6
CCn1cc(CN2CCN(C(=O)N3CCOCC3)CC2)cn1 | 16.2
CC(C)CN(C)S(=O)(=O)c1ccc(Cl)cc1C#N | 34.3
CCC(CNC(=O)Cn1ccnc1)Oc1cccc(F)c1 (stereo not given) | 21.1
NC(=O)C(NCc1cccs1)c1ccccc1 (stereo not given) | -9.69

Compound | cytotoxicity at 70.5 h [%]
O=C(NCc1cccnc1OCC(F)(F)F)N1CCOCC1 | 7.44
COc1ncccc1CNC(=O)N1CCC(CN2CCOCC2)CC1 | 13.3
CC(C)Oc1ncccc1CNC(=O)N1CCOCC1 | -14.9
Cc1occc1C(=O)NCC(=O)N(C)CCCOc1ccc(F)cc1 | -6.91
Cc1cc(C)c(CNC(=O)NCCc2cccnc2)c(=O)[nH]1 | -10.1
CCCC(C#N)NC(=O)CCCOc1cccc(F)c1 (stereo not given) | -9.46
c1ccc2sc(N3CCCC(Cn4cncn4)C3)nc2c1 (stereo not given) | -6.17
Cn1cccc(NC(=O)NCCc2cccc(O)c2)c1=O | 9.38
Cn1cccc(NC(=O)NCc2cccc(CO)c2)c1=O | 7.6
O=C(NCCc1nnc[nH]1)Nc1cccc(SC(F)F)c1 | -9.47
CCS(=O)(=O)N1CCc2c(cccc2NCc2nc(C)c(C)o2)C1 | 19.1
CCC(CNC(=O)c1ccc(C(N)=O)cc1)Oc1cccc(F)c1 (stereo not given) | -1.85
Cc1nc(CC2CCCN(Cc3nc4ccccc4c(=O)[nH]3)C2)no1 (stereo not given) | -7.59
CCC(O)CN(c1ccccc1)S(=O)(=O)c1cnc(C)s1 (stereo not given) | 18.5
CCc1cnc(CNc2cccc3c2CCN(S(=O)(=O)CC)C3)o1 | -2.87
CCN(CC)C(=O)N1CCN(CCc2ccncc2)CC1 | -7.09
CC(=O)c1cccc(OCCCC(=O)NC(C#N)CC(C)C)c1 (stereo not given) | -9.77
CCn1cc(CN2CCCN(C(=O)C3(C)CCOCC3)CC2)cn1 | -10.2
Cc1occc1C(=O)NCC(=O)N(C)CCCOc1ccccc1 | -1.18
CCCN(CC1COc2ccccc2O1)C(=O)c1ncoc1CC (stereo not given) | -7.46
O=C(NCc1nc(C2CC2)no1)N1CCOC(c2ccccc2)C1 (stereo not given) | -13.1
CCN(CC)CC(=O)N1CCN(CCCc2ccncc2)CC1 | -0.476

Compound | cytotoxicity at 70.5 h [%]
NC(=O)N1CCCC(C(=O)NCCOc2ccc3c(c2)OCO3)C1 (stereo not given) | 2.99
COC(=O)c1cccc(S(=O)(=O)Nc2ccc(F)c(C(N)=O)c2)c1 | 14.1
CC(NC(=O)Nc1cccnc1N1CCCC1)c1ccccn1 (stereo not given) | -17.8
NC(=O)CC1CCN(c2ncnc3cccc(F)c23)CC1 | -3.61
CSCc1ccc(CNCCN2CCOCC2)o1 | -12.8
Cc1oc(C)c(C(=O)NS(=O)(=O)c2ccc3c(c2)OCCCO3)c1C | -27.5
Cc1noc(C(C)N2CCN(CCc3ccncc3)CC2)n1 (stereo not given) | -4.19
CC(NC(=O)Nc1cccnc1N1CCOCC1)c1ccccc1 (stereo not given) | -8.45
N#CC1(NC(=O)c2nccc3ccccc23)CCC2(CC1)OCCO2 | -25.4
Cc1noc(C)c1CN1CCC(NC(=O)OC(C)(C)C)CC1 | -0.745
Cc1cc(Cn2cc(C#N)c(=O)c3ccccc32)no1 | -5.19
Cc1cc(Cn2cc(C#N)c(=O)c3ccccc32)on1 | 8.12
COC(=O)C1CCN(C(=O)NCC(C)Cc2cccs2)CC1 (stereo not given) | -14.5
CCOCCN1CCN(C(C)C(=O)Nc2ccnn2C(C)C)CC1 (stereo not given) | -3.46
CC(NCc1ccco1)c1nnc2n1CCCC2 (stereo not given) | -5.13
CCN(CC)C(=O)CCNC(=O)N(C)Cc1ccc(SC)c(OC)c1 | -11.2
CCCn1nc2c(cc1=O)CN(Cc1ccccn1)CC2 | 0.0556
NCC1(c2cccc(C(F)(F)F)c2)CC1 | 13.4
CC(=O)c1cccc(NC(=O)CN2CCCC(C3OCCO3)C2)c1 (stereo not given) | -7.07
CC(=O)c1cccc(NC(=O)CN2CCCCC2C)c1 (stereo not given) | -2.56
CCOc1cc(/C=C/c2ncc(C(=O)NC)s2)ccc1OC | -13.2
COc1ccc(NC(=O)CCC(C)C)c(N2CCN(C(C)=O)CC2)n1 | -13.6

Compound | cytotoxicity at 70.5 h [%]
COC(=O)CCNC(=O)c1nnn(-c2ccc(F)cc2)c1C1CC1 | -10.2
COc1ccc(N)c(N2CCN(C(C)=O)CC2)n1 | -11
CNS(=O)(=O)c1cccc(C(C)NCc2cccc(O)c2)c1 (stereo not given) | -11.9
Cc1ccc(C(CNCc2ncc[nH]2)N2CCOCC2)s1 (stereo not given) | -12.7
Cc1ccc(C(CNCc2ccc(C#N)cc2)N2CCOCC2)s1 (stereo not given) | -3.96
CCC(=O)N1CCCN(c2cncc(-n3nc(C)cc3C)n2)CC1 | -4.7
Cc1cc(C)n(-c2cncc(N3CCN(C(=O)C(C)C)CC3)n2)n1 | -4.92
COCc1nc2cc(NCc3scnc3C)ccc2o1 | -5.1
NC(=O)NC(=O)Cn1ccc2sccc2c1=O | -5.03
COCc1nc2cc(NCc3ncc[nH]3)ccc2o1 | -3.38
CNS(=O)(=O)c1cccc(C(C)NCc2ccc(C)o2)c1 (stereo not given) | -2.97
CCC(=O)N1CCCN(C(=O)C2SCCc3sccc32)CC1 (stereo not given) | 3.13
CN(CC(=O)Nc1cccnc1)CC1CCCN1c1cccnn1 (stereo not given) | -7.79
CNS(=O)(=O)c1cccc(C(C)NCc2ccccc2OC)c1 (stereo not given) | -4.76
Cc1cc(NC(=O)CN(C)CC2CCCN2c2cccnn2)n(C)n1 (stereo not given) | -5.26
CCCn1cc(CNCC(c2ccc(C)s2)N2CCOCC2)cn1 (stereo not given) | 8.59
Cc1ccc(C2CCCN2CC(=O)N(CCC#N)c2ccccc2)cc1 (stereo not given) | -7.81
Cc1cnn(C2CN(CC(O)COCc3ccc4c(c3)OCO4)C2)c1 (stereo not given) | -0.637
CCS(=O)(=O)CC(=O)N1CCCC1c1noc(C2CC2)n1 (stereo not given) | -8.04
